Results reported in paper PMC12703733, “Probing Guanidino Pendant or Bridged Groups in Cyclic Antimicrobial Peptides Derived from Temporin L: A Strategy to Improve Efficacy against Gram-Negative Bacteria” (Journal of Medicinal Chemistry, 2025).
Where two headings read alike, the source gives them in different places. Bridge positions count the residues as written; N and C are the ends. Square brackets hold non-standard residues; d marks the D form. Peptide text beside a SMILES is read from it.

Legend:
circular dichroism = conditions: water; pH ns; 25 °C; 150 uM
[1] = system: human keratinocytes (HaCaT cells); format: cell-based
Outline: (§1)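 Cells were plated at about 4 × 10^4/well in 2% FBS, then exposed to peptide at 100–3.12 μM in serum-free medium for 2 h or 24 h. Viability was measured by MTT reduction (0.5 mg/mL, 4 h, absorbance 570 nm) relative to untreated cells, as the mean ± SEM of three experiments.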

[2] = format: cell-based, human
Outline: as §1

BEAS-2B cells = format: cell-based
Experimental: (§2) For the evaluation of peptides’ cytotoxicity, the human immortalized keratinocytes (HaCaT cells), purchased from AddexBio (San Diego, CA, USA), and BEAS-2B were used. HaCaT cells were cultured in Dulbecco’s modified Eagle’s medium supplemented with 4 mM glutamine (DMEM), 10% heat-inactivated fetal bovine serum (FBS), and 0.1 mg/mL of penicillin and streptomycin, at 37 °C and 5% CO2. BEAS-2B cells were cultured in RPMI, supplemented with 2 mM glutamine (DMEM), 10% heat-inactivated fetal bovine serum (FBS), 1 mM sodium pyruvate, and 0.1 mg/mL of penicillin and streptomycin, at 37 °C and 5% CO2. Cytotoxicity was tested in vitro using a colorimetric assay that relies on the intracellular reduction of the yellow 3-(4,5-dimethylthiazol-2-yl)-2,5-diphenyltetrazolium bromide salt (MTT) by mitochondrial dehydrogenases of metabolically active cells in formazan crystals (purple). About 4 × 10^4 HaCaT and BEAS-2B cells, suspended in DMEM supplemented with 2% FBS, were plated in triplicate wells of a 96-well microtiter plate. The plate was incubated overnight at 37 °C and 5% CO2. Then, the cells were treated with different concentrations of the peptide (from 100 to 3.12 μM) in a fresh serum-free medium for 2 h and for a longer time (24 h). Following peptide treatment, the medium was removed, and MTT (0.5 mg/mL) solution in Hank’s buffer (136 mM NaCl, 4.2 mM Na2HPO4, 4.4 mM KH2PO4, 5.4 mM KCl, 4.1 mM NaHCO3, pH 7.2, supplemented with 20 mM D-glucose) was added to each well of the plate, that was then incubated for 4 h at 37 °C and 5% CO2. The purple formazan crystals were dissolved using acidified 2-propanol and a microplate reader (Infinite M200; Tecan, Salzburg, Austria) was used to measure the absorbance of each well at 570 nm. The percentage of cell viability was calculated compared to the control, which consisted of cells without any peptide treatment (corresponding to 100% viability) and all data represent the mean of three independent experiments ± SEM.

[3] = format: cell-based; conditions: Cell viability (%)
Experimental: as §2

## CC[C@H](C)[C@H](NC(=O)[C@H](CCCNC(=N)N)NC(=O)[C@H]1CCC(=O)NCCCC[C@H](NC(=O)[C@H](Cc2ccccc2)NC(=O)[C@H](Cc2c[nH]c3ccccc23)NC(=O)[C@@H]2CCCN2C(=O)[C@@H](NC(=O)[C@@H](N)Cc2ccccc2)C(C)C)C(=O)N[C@@H](CCCCN)C(=O)N[C@@H](Cc2ccccc2)C(=O)N[C@H](CC(C)C)C(=O)N1)C(=O)N[C@@H](CC(C)C)C(N)=O [Peptide 2, FVPWF[KKFle]RIL] (H-FVPWFKKF[dL][dE]RIL-NH2; lactam 6-10)
Circular dichroism
  helicity: 7%
[1]; 3.12 µM
  Cell viability (%): 101 ± 2%
[1]; 6.25 µM
  Cell viability (%): 92 ± 2%
[1]; 12.5 µM
  Cell viability (%): 92 ± 1%
[1]; 25 µM
  Cell viability (%): 94 ± 1%
[1]; 24 h
  CC50: 56.4 µM
[2]; CC50
  CC50: > 50 µM
[2]; Cell viability (%)
  viability at 3.12 µM: 102%
  viability at 6.25 µM: 96%
  viability at 12.5 µM: 95%
  viability at 25 µM: 95%
  viability at 50 µM: 64%
BEAS-2B cells; 3.12 µM
  Cell viability (%): 132%
BEAS-2B cells; 6.25 µM
  Cell viability (%): 119%
BEAS-2B cells; 12.5 µM
  Cell viability (%): 114%
BEAS-2B cells; 25 µM
  Cell viability (%): 102%
BEAS-2B cells; 100 µM
  Cell viability (%): 8%
[3]
  viability at 6.25 µM: 107%
  viability at 12.5 µM: 100%
  viability at 25 µM: 91%
  viability at 100 µM: 5%
